Assay results as given in ChEMBL document CHEMBL1201862, “PubChem BioAssay data set” (2004).
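Step 1: Grow cells in 96-well plates. Step 2: Expose to compound for 48 hours at 5 concentrations. Step 3: Interpolate endpoints linearly; if unreached, use highest concentration. Here, GI50 denotes the concentration required for 50% inhibition of growth.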 Activity calls are given as the source filed them. Cut-off read from the data, not from the text of the source: active = GI50 up to about 1.1 µM and inactive = higher.

Legend:
Assay in all cases: inhibition of tumour cell growth, NCI panel, 48 h
[1] = system: HT-29
[2] = system: TK-10
[3] = system: UACC-257
[4] = system: NCI-H522
[5] = system: HCT-116
[6] = system: SK-MEL-28
[7] = system: IGROV-1
[8] = system: SF-295
[9] = system: SK-MEL-2
[10] = system: SW-620
[11] = system: 786-0
[12] = system: NCI-H23
[13] = system: SNB-75
[14] = system: MCF7
[15] = system: NCI-H226
[16] = system: HCT-15
[17] = system: SF-539
[18] = system: HL-60
[19] = system: Hs-578T
[20] = system: OVCAR-3

Row | SMILES | GI50 [1] | GI50 [2] | GI50 [3] | GI50 [4] | GI50 [5] | GI50 [6] | GI50 [7] | GI50 [8] | GI50 [9] | GI50 [10] | GI50 [11] | GI50 [12] | GI50 [13] | GI50 [14] | GI50 [15] | GI50 [16] | GI50 [17] | GI50 [18] | GI50 [19] | GI50 [20]
1 | Sc1nnc(CNc2ccc(-c3nnc(S)n3-c3ccc(Cl)cc3)cc2)n1-c1ccc(Cl)cc1 | 25.3 µM (inactive) | 37.2 µM (inactive) | 41.2 µM (inactive) | 15.2 µM (inactive) | 15.2 µM (inactive) | 25.8 µM (inactive) | 3.21 µM (inactive) | 26.9 µM (inactive) | 22.4 µM (inactive) | 35.3 µM (inactive) | 26.9 µM (inactive) | 39 µM (inactive) | 39.7 µM (inactive) | 40.3 µM (inactive) | 40.7 µM (inactive) | 48 µM |  |  |  | 
2 | CC(CCC(=O)O)[C@H]1CCC2[C@H]3C(CC(=O)[C@@]21C)[C@@]1(C)CCC(O)C[C@H]1C[C@@H]3O (stereo not given in full) | > 100 µM (inactive) |  | > 100 µM (inactive) | > 100 µM (inactive) | > 100 µM (inactive) | > 100 µM (inactive) | > 100 µM (inactive) |  | > 100 µM (inactive) | > 100 µM (inactive) | > 100 µM (inactive) | > 100 µM (inactive) | > 100 µM (inactive) | > 100 µM (inactive) | > 100 µM (inactive) | > 100 µM | > 100 µM (inactive) | > 100 µM (inactive) |  | 
3 | COC(=O)[C@@H]1CN(C(=O)Cc2ccccc2)C(=O)N1 | > 100 µM (inactive) | > 100 µM (inactive) | > 100 µM (inactive) | > 100 µM (inactive) | > 100 µM (inactive) | > 100 µM (inactive) | > 100 µM (inactive) | > 100 µM (inactive) |  | > 100 µM (inactive) | > 100 µM (inactive) | > 100 µM (inactive) | 93.8 µM (inactive) |  | > 100 µM (inactive) |  | > 100 µM (inactive) | > 100 µM (inactive) | > 100 µM (inactive) | > 100 µM (inactive)
4 | COC(=O)C1=CNC(C(=O)OC)=NN1 | > 100 µM (inactive) | > 100 µM (inactive) | > 100 µM (inactive) | > 100 µM (inactive) | > 100 µM (inactive) | > 100 µM (inactive) | > 100 µM (inactive) | > 100 µM (inactive) | > 100 µM (inactive) | > 100 µM (inactive) | > 100 µM (inactive) | > 100 µM (inactive) | > 100 µM (inactive) |  | > 100 µM (inactive) | > 100 µM | > 100 µM (inactive) | > 100 µM (inactive) |  | > 100 µM (inactive)
5 | Cc1ccc(C2=[N+]([O-])c3ccccc3C2=O)cc1 | 26.3 µM (inactive) | > 31.6 µM (inactive) | 16.5 µM (inactive) | 15.8 µM (inactive) | 23.6 µM (inactive) | 15.8 µM (inactive) | 15.7 µM (inactive) | 28.8 µM (inactive) | > 46.8 µM (inactive) | 36.4 µM (inactive) | 24 µM (inactive) | 19.2 µM (inactive) | 44.4 µM (inactive) |  | 46.7 µM (inactive) | 16.5 µM | 30.9 µM (inactive) | 7.98 µM (inactive) |  | 16.6 µM (inactive)
6 | O=S(=O)(O)c1cc(S(=O)(=O)O)c2cc(/N=N/c3c(O)ccc4ccccc34)ccc2c1 | > 100 µM (inactive) | > 100 µM (inactive) | > 100 µM (inactive) | > 100 µM (inactive) | > 100 µM (inactive) | > 100 µM (inactive) | > 100 µM (inactive) | > 100 µM (inactive) | > 100 µM (inactive) | > 100 µM (inactive) | > 100 µM (inactive) | > 100 µM (inactive) | > 100 µM (inactive) |  | > 100 µM (inactive) | > 100 µM |  | > 100 µM (inactive) | > 100 µM (inactive) | > 100 µM (inactive)
7 | CCCc1c[nH]c(-c2ccc(-c3cc(CCC)c(C=O)[nH]3)s2)c1 | 5.38 µM (inactive) | 15.3 µM (inactive) | 17.3 µM (inactive) | 16 µM (inactive) | 18 µM (inactive) | 13.6 µM (inactive) | 30.4 µM (inactive) | 18.9 µM (inactive) | 15 µM (inactive) | 17.4 µM (inactive) | 14.6 µM (inactive) | 26.5 µM (inactive) | 19.8 µM (inactive) |  | 18.7 µM (inactive) | 14.6 µM | 18.7 µM (inactive) | 21.2 µM (inactive) |  | 17 µM (inactive)
8 | CC1(C)CCC(C)(C)c2cc(C(=O)Nc3ccc(C(=O)O)cc3)ccc21 | 20.7 µM (inactive) | 26.1 µM (inactive) | 28.2 µM (inactive) | 26.9 µM (inactive) | 19.3 µM (inactive) | 40.3 µM (inactive) | 22.7 µM (inactive) | 22 µM (inactive) | 22.1 µM (inactive) | 36.7 µM (inactive) | 28.9 µM (inactive) | 17.9 µM (inactive) | 26.4 µM (inactive) | 33.1 µM (inactive) | > 44.8 µM (inactive) | 22.7 µM | 13.4 µM (inactive) | 3.52 µM (inactive) |  | 17.9 µM (inactive)
